Consider three compounds from patent publication EP0442757A2, “Therapeutic nucleosides” (THE WELLCOME FOUNDATION LIMITED, priority 1990, dated 1991).

What all share (assay type): cell-based
Data set [1] can be described thus: Cell toxicity, cell growth inhibition assay (MTT uptake). Particulars: CCID-50: 50% inhibition of cell viability at 5 days; uninfected MT4 cells or vero cells (not stated which); read-out: TOX. As for the experimental part: Cell toxicity was assessed in a cell growth inhibition assay on uninfected MT4 cells or on vero cells in a 96-well microtiter dish. Identical cell numbers of uninfected cells were exposed to different dilutions of drug and cell viability determined daily on replicate cultures using uptake of MTT. The concentration required for a 50% inhibition of cell viability at 5 days is termed CCID-50.

The test system of data set [2] is HIV-1. The data set can be described thus: Antiviral MT4 assay (reversal of HIV cytopathic effect, MTT uptake). Particulars: MTT uptake at fifth day post infection, several values per cell, read-out: IC50 vs HIV-1 (μM) MT-4 (converted). How it is done:
Antiviral activity against the Human Immunodeficiency Virus (HIV) was determined according to the method of Pauwels et al, J.Virol.Methods, 1988 20 309-321 by measuring the ability of the compound to reverse the cytopathic effect of HIV infection. This was determined by a quantitative assessment of cell growth monitored at the fifth day post infection by a tetrazolium dye (MTT) uptake test. Subconfluent (20-40,000 cells/well) human T lymphocyte cell line MT4 cells infected with HIV were grown in 96-well microtiter dishes and exposed to different dilutions of drug. After 5 days, the dye intake test was performed on drug treated cultures and on HIV infected and mock infected MT4 cells. Under the conditions of the test, HIV infection caused extensive cytopathic effect and prevented cell growth by >80%. The antiviral effect of a drug is reported as an IC-50, i.e. as the inhibitory concentration that would protect 50% of the cells from cell killing, measured as 50% of that cell growth determined for uninfected MT4 cell controls.
For orientation: Protection from cytopathic effect is a common read-out in antiviral testing.

The subject of data set [3] is HIV-1. Kind of data set: HeLa-CD4+ cell assay (plaque reduction in HT4-6C cell monolayers). The note with it: Human immunodeficiency virus 1, plaque reduction after 2-3 days, method calls the value ID50. How it is done:
Susceptibility of HIV to inhibitors was determined by infection of HT4-6C cell monolayers as described by Larder, B.A., Chesebro, B. & Richman, D.D. Antimicrob. Agents Chemother. 1990 34, 436-441. Briefly cells were seeded in 24-well multiwells at 5x10⁴ cells per well and incubated overnight at 37°C in growth medium (DMEM10). Monolayers were infected with 100-200pfu of cell-free virus in 0.2ml of DMEM containing 5% fetal bovine serum plus antibiotics (DMEM5) and incubated for 1 hour at 37°C to allow virus adsorption. Following this time, 0.8ml of DMEM5 (with or without inhibitor) was added to each well and cultures were incubated at 37°C for 2-3 days. Monolayers were fixed with 10% formaldehyde solution in PBS and stained with 0.25% crystal violet in order to visualize virus plaques. Individual foci of multinucleated gian cells (plaques) were apparent using this staining procedure. ID₅₀ values were derived from plots of percent plaque reduction versus inhibitor concentration.

Data set [4] deals with HIV-1. Kind of data set: PBL assay (P24 capsid antigen ELISA in human peripheral blood lymphocytes). The note with it: human PBL's stimulated with IL2 and PHA, P24 ELISA after 4 days incubation at 37°C, several values per cell. How it is done: HIV assays were carried out in human peripheral blood lymphocytes (PBL's) prepared by fractionation of fresh human […] on Ficoll gradients as described by Hartmann H. et al. Aids Research and Human Retroviruses, 1988, 4 457-466. The isolated PBL's were stimulated with growth factors IL2 and PHA for 3 days before infection with HIV. Growth of virus was monitored, after 4 days incubation at 37°C, by quantitative ELISA assays of the capsid antigen, P24. A range of concentrations of compound of known molarity was incorporated into the medium. Yield of P24 at each concentration are expressed as a percentage of the control and a dose response curve is drawn. From this curve the 50% inhibitory concentration (IC50) is estimated.

Where [5] appears, read: Human immunodeficiency virus 1, Lymphocyte, 96 h.

By IC50 is commonly meant the concentration at which inhibition is half-maximal.

With `COCc1cn([C@H]2C[C@H](F)[C@@H](CO)O2)c(=O)[nH]c1=O` [2′,3′-Dideoxy-3′-fluoro-5-methoxymethyluridine], in data set [1], the CC50 at 120 h is > 500 µM. Moreover, the IC50 was 8.4 µM in the data set on HIV-1 [2] (Human immunodeficiency virus 1, MT4, MT4 cells infected with HIV); 6.4 µM in the data set with HIV-1 [2] (MT4 cells infected with HIV); 11.9 µM in the data set on HIV-1 [3]; 1.89 µM with HIV-1 [4] (setting [5]).
For the compound `CSCc1cn([C@H]2C[C@H](F)[C@@H](CO)O2)c(=O)[nH]c1=O` [2′,3′-Dideoxy-3′-fluoro-5-methylthiomethyluridine], in data set [1], the CC50 at 120 h was > 200 µM. Moreover, the concentration for half-maximal inhibition (IC50) in the data set on HIV-1 [3] turned out to be 4.2 µM.
`CCOCc1cn([C@H]2C[C@H](F)[C@@H](CO)O2)c(=O)[nH]c1=O` [2′,3′-Dideoxy-5-ethoxymethyl-3′-fluorouridine]: the CC50 at 120 h in data set [1] is > 200 µM. Besides, the IC50 in the data set on HIV-1 [3] is 6.3 µM; with HIV-1 [4] (setting [5]) it was 1.52 µM; in the data set with HIV-1 [4], 1.63 µM.
